# Where a SMILES comes first, the peptide text is derived from it. [ ]: non-standard residue; d: D form. dPhe(4-Cl) = N[C@H](Cc1ccc(Cl)cc1)C(=O)O; d2Nal = N[C@H](Cc1ccc2ccccc2c1)C(=O)O; dCit = NC(=O)NCCC[C@@H](N)C(=O)O; d3Pal = N[C@H](Cc1cccnc1)C(=O)O
# Experiments:
# pregnant mice = assay: LH, T, E2 and P measurement in pregnant mice at E19.5; format: in vivo, mouse
# Procedure: PAMH+GnRH antag. (FIG. 3D) Schematic representation of tail-tip blood sampling in adult diestrus female mice (3-4 months old). (FIG. 3E) Tail blood was collected every 10 min for 2 h and LH measured from 10 a.m-12 p.m in adult (P60) diestrus females (Control, n=8; PAMH, n=10; PAMH+GnRH antag, n=9; One-way ANOVA and Tukey's multiple comparison post hoc test, F(2,24)=57.06, *P<0.05, ***P<0.0001). Bars from left to right: Control, PAMH, PAMH+GnRH antag. (FIGS. 2F-1, 2F-2, 2F-3) Representative graphs for LH pulsatility over 2-hr in one female adult (P60) mouse of each treatment. Asterisks in (FIG. 3F) indicate the number of LH pulses/2-hr. (FIG. 3G) Mean circulating testosterone and LH levels were analyzed in pregnant PBS-treated (n=4) and AMH-treated (n=4) dams at embryonic day (E) 19.5 of gestation. […] Values are expressed as relative to the mean of each treatment. All values are expressed as mean±s.e.m. […]
# For the analysis of circulating LH and T levels, animals were decapitated and trunk blood from adult (P60) animals and P0 pups (1-2 hrs after birth) were collected in sterile Eppendorf tubes and left on ice until centrifugation. […] LH levels were determined by a sandwich ELISA, as described previously (Vidal et al., 2012, PloS one, Vol. 7: e39001), using the mouse LH-RP reference provided by A. F. Parlow (National Hormone and Pituitary Program, Torrance, CA). […]
# placenta = assay: Quantitative RT-PCR of E19.5 placental tissue; format: in vivo, mouse; settings: dams i.p. AMH + GnRH antag E16.5-E18.5; placenta E19.5
# Procedure: PAMH+GnRH antag. (FIG. 3D) Schematic representation of tail-tip blood sampling in adult diestrus female mice (3-4 months old). (FIG. 3E) Tail blood was collected every 10 min for 2 h and LH measured from 10 a.m-12 p.m in adult (P60) diestrus females (Control, n=8; PAMH, n=10; PAMH+GnRH antag, n=9; One-way ANOVA and Tukey's multiple comparison post hoc test, F(2,24)=57.06, *P<0.05, ***P<0.0001). Bars from left to right: Control, PAMH, PAMH+GnRH antag. (FIGS. 2F-1, 2F-2, 2F-3) Representative graphs for LH pulsatility over 2-hr in one female adult (P60) mouse of each treatment. Asterisks in (FIG. 3F) indicate the number of LH pulses/2-hr. (FIG. 3G) Mean circulating testosterone and LH levels were analyzed in pregnant PBS-treated (n=4) and AMH-treated (n=4) dams at embryonic day (E) 19.5 of gestation. […] (FIG. 3H) Relative mRNA expression of placental Cyp191a (aromatase) in control (n=4) and AMH (n=4)-treated pregnant animals at E19.5. Cyp191a expression in the placenta is […] in AMH-treated pregnant dams as compared to control-treated pregnant dams (Unpaired Student's t-test, t(6)=5.414, **P<0.005). Values are expressed as relative to the mean of each treatment. All values are expressed as mean±s.e.m. (FIGS. 3I-1, 3I-2, 3I-3, 3I-4) Dams were injected from E16.5 to E18.5 with either PBS (vehicle, n=9-11), AMH (n=8-10), AMH+GnRH antag (n=5) and trunk blood was collected at E19.5 for hormonal measurements by ELISA. Data were combined from at least two independent experiments. In FIGS. 3I-1, 3I-2, 3I-3, 3I-4: left bar: vehicle; middle bar: AMH; right bar: AMH+GnRH antagonist. (FIGS. 3J-1, 3J-2, 3J-3, 3J-4)) Real-time PCR analysis of expression levels of AMHR2, CYP191A (cytochrome P450 family 19A1, aromatase), CYP11A1 (cytochrome P450 family 11A1), HSD3B1 (3beta-hydroxysteroid dehydrogenase/delta(5)-delta(4)isomerase type I or hydroxy-delta-5-steroid dehydrogenase) mRNA in the placenta of E19.5 dams. Dams were injected i.p. from E16.5 to E18.5 with either PBS (vehicle, n=8-17), AMH (n=7-11), or AMH+GnRH antag (n=8-13). Data were combined from three independent experiments. […] In FIGS. 3J-1, 3J-2, 3J-3, 3J-4: left bar: vehicle; middle bar: AMH; right bar: AMH+GnRH antagonist.
# E19.5 placental tissue from female control and PAMH embryos was isolated for total RNA was using Trizol (ThermoFisher Scientific, Cat #15596026) and the RNeasy Lipid Tissue Mini Kit (Qiagen; Cat #74804) using the manufacturer's instructions. For gene expression analyses, mRNAs […] from E19.5 placental tissue were reverse transcribed using SuperScript® IV Reverse Transcriptase (Life Technologies). Real-time PCR was carried out on Applied Biosystems 7900HT Fast Real-Time PCR system using exon-boundary-specific TaqMan® Gene Expression Assays (Applied Biosystems): Amhr2 (AMHR2-Mm00513847_m1); Cyp19a1 (Cyp19a1-Mm00484049_m1); Cyp11a1 (Cyp11a1-Mm00490735_m1); HSD3b1 (Hsd3b1-Mm01261921_mH); GnRH (Gnrh-Mm01315604_m1); GnRH-R (Gnrhr-Mm00439143_m1); LH-R (Lhcgr-Mm00442931_m1). Control housekeeping genes: ActB (ActB-Mm00607939_s1); GAPDH (GAPDH-Mm99999915_g1).
# Quantitative RT-PCR was performed using TaqMan® Low-Density Arrays (Applied Biosystems) on an Applied Biosystems thermocycler using the manufacturer's recommended cycling conditions. Gene expression data were analyzed using SDS 2.4.1 and Data Assist 3.01 software (Applied Biosystems), with ActB and GAPDH as control house-keeping mRNA following a standardized procedure. […]
compound,measurement,setting,value
"CC(=O)N[C@H](Cc1ccc2ccccc2c1)C(=O)N[C@H](Cc1ccc(Cl)cc1)C(=O)N[C@H](Cc1cccnc1)C(=O)N[C@@H](CO)C(=O)N[C@@H](Cc1ccc(O)cc1)C(=O)N[C@H](CCCNC(N)=O)C(=O)N[C@@H](CC(C)C)C(=O)N[C@@H](CCCNC(=N)N)C(=O)N1CCC[C@H]1C(=O)N[C@H](C)C(N)=O [Cetrorelix acetate, Ac-D-2Nal-D-Phe(4-Cl)-D-3Pal-Ser-Tyr-D-Cit-Leu-Arg-Pro-D-Ala-NH2] (Ac-[d2Nal][dPhe(4-Cl)][d3Pal]SY[dCit]LRP[dA]-NH2)",circulating T in dams,pregnant mice; dams i.p. AMH + GnRH antag E16.5-E18.5,very low T levels
same,AMH-induced increase of LH in pregnant mice,pregnant mice; dams i.p. AMH + GnRH antagonist E16.5-E18.5,prevented
same,AMH-driven downregulation of placental HSD3B1 gene expression,placenta,prevented the downregulation
same,AMH-driven inhibition of placental CYP19A1 mRNA,placenta,prevented
same,placental CYP11A1 expression,placenta,did not find any difference
same,placental LHR expression,placenta,normalized
same,placental expression of GnRH and GnRHR,placenta,unchanged
